Experimental data taken from patent US8017350B2, “Glimepiride- and insulin-induced glycosylphosphatidylinositol-specific phospholipase C regulation” (Sanofi-Aventis Deutschland GmbH, priority 2004, dated 2011).

How the values were obtained:
[1] = test system: pp59Lyn and Gce1 / caveolin-1 in hcDIGs of rat adipocytes; assay: Dissociation of pp59Lyn and Gce1 from caveolin-1; type: cell-based; details: Adipocyte, FIG. 6 Panel B, read-out: IC50 for abrogation of losses from caveolin-1 immunoprecipitates
Experimental: Solubilized DIGs (see above, 5-20 μg protein) were precleared by incubation with protein A/G-Sepharose and subsequent centrifugation (10,000×g, 5 min). The supernatant was incubated with anti-caveolin-1 antibodies (1:1000) preadsorbed on protein A/G-Sepharose in 1 ml of 10 mM Tris/HCl (pH 7.4), 150 mM NaCl, 1% TX-100 for 1 h at 4° C. The immune complexes were washed twice with the same buffer and then twice with buffer lacking TX-100 and finally subjected to SDS-PAGE performed in the absence of β-mercaptoethanol. The recovery of immunoprecipitated caveolin was normalized by homologous immunoblotting with anti-caveolin antibodies of the same blot following stripping of the membrane.
Next we investigated the putative causal relationship between dissociation from caveolin/activation and stimulus-dependent lipolytic cleavage of GPI-proteins in rat adipocytes by inhibiting GPI-PLC and subsequent analysis of the interaction with caveolin-1 of Gce1 and pp59^Lyn as well as kinase activity of the latter (FIG. 6). […] This potency is similar to GPI-PLC inhibition by GPI-2350 in intact adipocytes (FIG. 3). […]

[2] = test system: glucose transport, rat adipocytes; assay: Glucose transport in rat adipocytes; type: cell-based; details: GPI-2350 50 μM
Experimental: Glucose transport was determined as described in “Müller, G. et al., (1994) J. Cell Biol. 126: 1267-1276” by incubation of 10,000-20,000 washed adipocytes with 2-deoxy-D[2,6-^3H]glucose at 50 μM final conc. (0.33 μCi/ml) in 50-μl portions for 20 min at 37° C. in the absence or presence of 20 μM cytochalasin B.
Subsequently, we studied whether the differential effects of GPI-PLC inhibition on IRS-1 tyrosine phosphorylation in response to insulin and glimepiride is reflected in their metabolic activity in insulin target cells. For this, isolated rat adipocytes were pretreated with GPI-2350 prior to challenge with either stimulus, and then assayed for glucose transport and isoproterenol-induced lipolysis (FIG. 8). […] These differential effects of GPI-PLC inhibition were confirmed by analysis of the effect of GPI-2350 on the inhibition of isoproterenol-induced lipolysis by glimepiride and insulin when measured as release of NBD-FA instead of glycerol from rat adipocytes prelabeled with this fluorescent fatty acid derivative (FIG. 9).
Table 3: Isolated rat adipocytes were incubated in the presence of methyl-β-cyclodextrin (m-β-CD, 10 mM, 50 min), CBDP (300 μM, electroporation, followed by washing and subsequent incubation for 30 min), PIG41 (10 μM, 15 min), sodium orthovanadate (1 mM, 15 min), trypsin (10 μg/ml, 15 min followed by treatment with 0.5 M NaCl and subsequent washing) and N-ethylmaleimide (1 mM, 5 min followed by addition of DTT). After addition of GPI-2350 (50 μM final conc.) to one half of the adipocyte suspension and further incubation (60 min, 37° C.), portions of the cells were assayed for 5′-Nuc activity in the isolated IcDIGs. The increase in 5′-Nuc during the basal incubation was set at 100 arb. units. Other portions of the cells (after 15 min incubation) were assayed for glucose transport which was set at 100 arb. units for the basal incubation. Means+SD of at least 3 independent cell incubations with activity measurements in triplicate each are given.
FIG. 8: Effect of GPI-2350 on the glimepiride/insulin-induced metabolic activity. Isolated rat adipocytes were treated (5 min, 37° C.) without or with GPI-2350 (Panel A, 50 μM; Panel B, increasing conc.; Panel C, 5 μM, 50 μM) and then incubated (15 min, 37° C.) in the absence or presence of insulin (Ins, 10 nM) or glimepiride (Gli, 20 μM or increasing conc.) as indicated. The adipocytes were then assayed for glucose transport and isoproterenol-induced lipolysis. The activity is given relative to the absence of GPI-2350 in the control reaction (Panels A, basal) or in the insulin- and glimepiride-stimulated state (Panels B and C, set at 100). Means+SD of at least 5 independent cell incubations with activity measurements in triplicate each are given.

With `CCCCCCCCCCCCP1(=O)O[C@@H]2[C@H](O)[C@@H](O)[C@H](O)[C@@H](O)[C@@H]2O1` (some centres unmarked) [GPI-2350, myo-inositol-1,2-cyclo-dodecylphosphonic acid] the IC50 [1] was 5 to 10 µM and the “glimepiride-stimulated glucose transport with GPI-2350” value [2] was “to lower than control values”.
